Data set [1] can be described thus: Estimated water content of crystalline forms after exposure to an atmosphere of defined relative humidity. Format: physicochemical. The note with it: (3R,5S)-enantiomer; form obtained from Form E by exposure to defined relative humidity (A: 0 to 20%; B1/B2: 20 to 55%; C: 75%; D: 90%); monosodium salt. As for the experimental part: The preparation of crystalline polymorphic Forms A, B1, B2, C and D is usually carried out by using Form E as the starting compound and by exposing Form E to an atmosphere having a defined relative humidity. Depending on the relative humidity used the different forms can be obtained.
Form E of Fluvastatin sodium ((3R,5S)-enantiomer) is first exposed to an atmosphere having a relative humidity of 90% for about 4 hours and subsequently to an atmosphere of 0 to 20% for about 90 minutes. This treatment leads to Form A of the (3R,5S)-enantiomer with an estimated water content of 0 to 5%. The above treatment can be carried out in an X-ray diffractometer in which the relative humidity of the atmosphere can be controlled during the measurement. X-ray powder diffraction studies show the product to be polymorphic Form A (see FIG. 1).
Form E of Fluvastatin sodium ((3R,5S)-enantiomer) is first exposed to an atmosphere having a relative humidity of 90% for about 4 hours and subsequently to an atmosphere of 20 to 55% for about 3 hours. This treatment leads to either Form B1 or Form B2 of the (3R,5S)-enantiomer with an estimated water content of 5 to 15%. The above treatment can be carried out in an X-ray diffractometer in which the relative humidity of the atmosphere can be controlled during the measurement. […]

In data set [2] the target is T1, 3-hydroxy-3-methylglutaryl coenzyme A (HMG-CoA) (Homo sapiens, UniProt P04035).
T1 sequence (P04035 1-888): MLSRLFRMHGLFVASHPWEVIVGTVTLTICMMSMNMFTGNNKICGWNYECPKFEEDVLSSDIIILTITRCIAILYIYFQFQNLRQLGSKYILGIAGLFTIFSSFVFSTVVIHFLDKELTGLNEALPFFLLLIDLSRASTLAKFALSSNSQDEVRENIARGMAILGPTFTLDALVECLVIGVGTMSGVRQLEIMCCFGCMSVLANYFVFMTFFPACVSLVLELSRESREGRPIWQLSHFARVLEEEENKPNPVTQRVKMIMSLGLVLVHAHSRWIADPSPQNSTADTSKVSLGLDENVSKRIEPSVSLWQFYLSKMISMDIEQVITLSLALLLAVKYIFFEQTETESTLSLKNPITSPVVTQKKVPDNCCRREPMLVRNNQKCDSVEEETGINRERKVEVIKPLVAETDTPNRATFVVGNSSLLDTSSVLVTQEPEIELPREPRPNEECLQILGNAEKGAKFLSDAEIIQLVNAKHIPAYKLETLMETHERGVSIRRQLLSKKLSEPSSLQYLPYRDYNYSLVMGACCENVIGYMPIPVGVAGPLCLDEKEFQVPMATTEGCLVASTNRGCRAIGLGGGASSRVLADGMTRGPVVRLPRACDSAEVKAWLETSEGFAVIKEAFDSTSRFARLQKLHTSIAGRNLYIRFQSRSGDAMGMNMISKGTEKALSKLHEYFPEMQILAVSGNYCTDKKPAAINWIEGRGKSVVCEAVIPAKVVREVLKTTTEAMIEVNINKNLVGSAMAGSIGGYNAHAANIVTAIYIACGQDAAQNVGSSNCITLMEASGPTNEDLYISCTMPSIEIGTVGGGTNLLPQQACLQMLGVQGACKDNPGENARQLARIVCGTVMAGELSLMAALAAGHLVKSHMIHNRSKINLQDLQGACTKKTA
To be noted: O. Tempkin et al., Tetrahedron 1997, vol. 53, pages 10659-10670; cited from earlier work.

Structures are written as SMILES.

In the case of `CC(C)n1c(/C=C/[C@@H](O)C[C@@H](O)CC(=O)[O-])c(-c2ccc(F)cc2)c2ccccc21.[Na+]` (single isomer, unassigned) [Form D, (3R,5S)- or (3S,5R)-7-(3-(4-fluorophenyl)-1-(1-methylethyl)-1H-indol-2-yl)-3,5-dihydroxy-6-heptenoic acid monosodium salt], in data set [1], the estimated water content is 30%.

Consider `CC(C)n1c(/C=C/[C@@H](O)C[C@@H](O)CC(=O)[O-])c(-c2ccc(F)cc2)c2ccccc21.[Na+]` (single isomer, unassigned; enantiomer 7) [(3R,5S)-enantiomer, 7-(3-(4-fluorophenyl)-1-(1-methylethyl)-1H-indol-2-yl)-3,5-dihydroxy-6-heptenoic acid monosodium salt], for which the “biological potency among enantiomers” value in data set [2] is listed as “biologically most potent enantiomer”.

The values are drawn from patent publication US20030125569A1, “Use of packing strip as a holographic data carrier” (priority 2002, published 2003).
